Structures are written as SMILES.

From US20250049708A1, “A TOPICAL GEL FORMULATION FOR SKIN AND MOUTH DISORDERS AND A PROCESS OF PREPARATION THEREOF” (priority 2021, published 2025) come the findings set out here.

Common to all, as to format: in vivo, male BALB/c mice
One data set deals with TNF-α. Put plainly: tongue and serum TNF-α levels in mice with oral mucositis (mouse TNF-α ELISA kit). The note with it: 5-FU + scratch mice. The protocol:
(§1) The in vivo pharmacological assessment of anti-mucositis activity of the topical or oromucosal gel formulation in male BALB/c mice was performed. The study protocol involves six BALB/c mice namely vehicle, 5-Fluorouracil (FU) group, 5 FU-group+Scratching, FU-group+Scratching, FU-group+Scratching+100 ug gel and FU-group+Scratching+30 ug respectively were maintained under specific pathogen-free conditions. The mice were 6-8 weeks of age and weighed 25-30 g. All animal experimental procedures were performed in accordance with the Institutional Animal Ethics Committee (IAEC) guidelines along with approval from IAEC.
(§2) The anti-mucositis study protocol involves mice that are intraperitoneally administered with 5-FU at 100 mg/kg on day 0. The scratching group of mice was anesthetized with isoflurane and an area of 0.5 cm^2 of the tongue was scratched using the tip of an 18-gauge needle at an equal force and depth on days 7 and 8. […]
(§3) The levels of biomarkers such as IL-6 and TNF-α were analyzed in mice upon treatment with topical or oromucosal gel formulation. The concentrations of these biomarkers in serum and tongue were analyzed using standard ELISA kits.
The tongue and serum concentrations of TNF-α were analyzed in mice with oral mucositis upon treatment with topical or oromucosal gel formulation. The concentrations of TNF-α in tongue and serum were analyzed using mouse TNF-α ELISA kit.

A further data set has as its system IL-6. In words: tongue and serum IL-6 levels in mice with oral mucositis (mouse IL-6 ELISA kit). The note with it: 5-FU + scratch mice. The protocol:
as §1, §2, §3
The tongue and serum concentrations of IL-6 were analyzed in mice with oral mucositis upon treatment with topical or oromucosal gel formulation. The concentrations of IL-6 in tongue and serum were analyzed using mouse IL-6 ELISA kit.

Data set [1] in a line: body weights of mice with oral mucositis over 15 days. The note with it: 5-FU + scratch mice; period of 15 days. The protocol: as §1
The anti-mucositis study protocol involves mice that are intraperitoneally administered with 5-FU at 100 mg/kg on day 0. The scratching group of mice was anesthetized with isoflurane and an area of 0.5 cm^2 of the tongue was scratched using the tip of an 18-gauge needle at an equal force and depth on days 7 and 8. The scratching was blinded to the treatment groups. Dexamethasone was administered orally at 1 mg/kg/day from on day 7.
The body weights of mice with oral mucositis upon treatment with topical or oromucosal gel formulation were analyzed for a period of 15 days.

A further data set concerns oral mucositis. In words: anti-mucositis activity (mucositis score) in mice with 5-FU + tongue scratching induced oral mucositis. The note with it: score 0-5. The protocol: as §1
The activity of misoprostol of the topical or oromucosal gel formulation was analyzed for anti-mucositis in mice. The anti-mucositis activity is analyzed based on the mucositis score. The scoring parameters for anti-mucositis activity include erythema, vasodilation, erosion, bleeding, fibrosis, and ulcers.
A scoring method is adopted for oral mucositis induced by radiation and chemotherapy. The scoring evaluates the relationship between dosage, delivery method and complications. The Scoring systems are useful in assessing the impact of therapy on patient. […]
FIG. 5 illustrates the effect of topical or oromucosal gel formulation in mice with oral mucositis. The mucositis score was evaluated for 6 groups of mice (G1-G6) over a period of 15 days.

In the case of `C[C@@H]1C[C@H]2[C@@H]3CCC4=CC(=O)C=C[C@]4(C)[C@@]3(F)[C@@H](O)C[C@]2(C)[C@@]1(O)C(=O)CO` [Dexamethasone], the “serum TNF-α mean concentration” value in the data set with TNF-α (serum) is reported as 3.32. Moreover, the “tongue TNF-α mean concentration” value with TNF-α (tongue) turned out to be 20.07. In addition, in the data set on IL-6 (serum), the “serum IL-6 mean concentration” value turned out to be 6.91. In the data set on IL-6 (tongue), the “tongue IL-6 mean concentration” value worked out at 44.20. Also, the body weight course result in data set [1] is “decrease in weight for 8 days and gradually increases over the remaining 7 days”. Further, the “mucositis score reached in the increase phase” value in the data set with oral mucositis (5-FU 100 mg/kg i.p. day 0 + tongue scratch days 7 and 8, increase till day 8) is recorded as 3. Further, the “mucositis score after decrease over the remaining days” value with oral mucositis (5-FU + scratch, end of 15 day period) came to 1.
